From patent US11053225B2, “Pyrimidine derivative compound, optical isomer thereof, or pharmaceutically acceptable salt thereof, and composition for preventing or treating Tyro 3 related disease comprising same as active ingredient” (KOREA RESEARCH INSTITUTE OF CHEMICAL TECHNOLOGY, priority 2017, dated 2021)

Biological target: Axl (Homo sapiens (Human), UniProt P30530)
Test: Axl kinase inhibition assay (Cisbio method, Eu-labeled antibody to phosphorylated peptide)
Conditions: read-out: IC50 (μM) Axl; 1 hour reaction with substrate peptide and ATP
Experimental: For evaluation of inhibitory activities of the compounds according to the present invention on Tyro 3, Axl, and Mer, the following test was carried out.
The specific test method followed the method provided by Cisbio. The compounds of the examples were prepared at various concentrations, followed by addition of Tyro 3, Axl, or Mer and substrate peptides, and then ATP was added to initiate a reaction. After 1 hour, the reaction was stopped by addition of a solution containing EDTA. Thereafter, the amount of phosphorylated peptides was measured. Here, the phosphorylated peptides were treated with an europium (Eu)-labeled antibody recognizing phosphorylated peptides, and then after 1 hour, excited by irradiation of the light of a wavelength of 320 or 340 nm using an Envision Reader.

Axl, sequence (P30530 26-894): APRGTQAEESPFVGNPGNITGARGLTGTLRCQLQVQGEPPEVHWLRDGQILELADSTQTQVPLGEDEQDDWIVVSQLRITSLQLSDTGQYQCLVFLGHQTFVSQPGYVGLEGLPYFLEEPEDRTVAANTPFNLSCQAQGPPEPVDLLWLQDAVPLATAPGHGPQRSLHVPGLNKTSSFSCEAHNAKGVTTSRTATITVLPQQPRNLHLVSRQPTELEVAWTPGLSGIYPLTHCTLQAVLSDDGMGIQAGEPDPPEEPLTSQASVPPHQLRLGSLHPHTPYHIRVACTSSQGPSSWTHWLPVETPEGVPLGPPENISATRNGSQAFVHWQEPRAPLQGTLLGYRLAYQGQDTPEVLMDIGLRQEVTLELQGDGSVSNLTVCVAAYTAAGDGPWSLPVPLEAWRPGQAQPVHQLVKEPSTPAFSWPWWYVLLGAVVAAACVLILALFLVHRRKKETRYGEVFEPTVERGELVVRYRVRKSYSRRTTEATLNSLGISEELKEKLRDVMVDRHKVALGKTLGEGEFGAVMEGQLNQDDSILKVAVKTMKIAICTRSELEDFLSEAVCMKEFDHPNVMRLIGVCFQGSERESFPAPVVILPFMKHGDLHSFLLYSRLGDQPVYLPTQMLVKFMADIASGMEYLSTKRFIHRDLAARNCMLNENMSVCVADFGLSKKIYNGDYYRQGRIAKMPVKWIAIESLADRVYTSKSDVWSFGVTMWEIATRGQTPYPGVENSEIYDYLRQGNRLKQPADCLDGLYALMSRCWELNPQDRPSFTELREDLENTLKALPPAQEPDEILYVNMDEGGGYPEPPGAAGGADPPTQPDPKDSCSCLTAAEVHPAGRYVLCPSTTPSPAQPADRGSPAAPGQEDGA

| Compound | IC50 [µM] |
| --- | --- |
| Cn1cc(-c2cnc(Nc3ccc4c(c3)CN(C(=O)C(F)(F)F)CC4)nc2NC2CCN(C(=O)C(F)(F)F)CC2)cn1 [Compound 70, 1-(4-(5-(1-methyl-1H-pyrazol-4-yl)-2-(2-(2,2,2-trifluoroacetyl)-1,2,3,4-tetrahydroisoquinolin-7-ylamino)pyrimidin-4-ylamino)piperidin-1-yl)-2,2,2-trifluoroethanone] | > 10 |
| Cc1cccc(Nc2ncc(-c3ccoc3)c(NC3CCN(C(=O)C(F)(F)F)CC3)n2)c1 [Compound 50, 1-(4-(2-(m-toluidino)-5-(furan-3-yl)pyrimidin-4-ylamino)piperidin-1-yl)-2,2,2-trifluoroethanone] | > 10 |
| Cn1cc(-c2cnc(Nc3cc(C(F)(F)F)cc(C(F)(F)F)c3)nc2Nc2ccc3c(c2)CNCC3)cn1 [Compound 136, N2-(3,5-bis(trifluoromethyl)phenyl)-5-(1-methyl-1H-pyrazol-4-yl)-N4-(1,2,3,4-tetrahydroisoquinolin-7-yl)pyrimidine-2,4-diamine] | > 10 |
| O=C(NC1CCC(Nc2nc(Nc3cc(Cl)cc(Cl)c3)ncc2-c2cnn(C3CCNCC3)c2)CC1)C(F)(F)F (stereo not shown) [Compound 122, 1-(4-(2-(3,5-dichlorophenylamino)-5-(1-(piperidin-4-yl)-1H-pyrazol-4-yl)pyrimidin-4-ylamino)cyclohexyl)-2,2,2-trifluoroacetamide] | > 10 |
| O=C(N1CCc2ccc(Nc3nc(Nc4cc(C(F)(F)F)cc(C(F)(F)F)c4)ncc3-c3cnn(CCO)c3)cc2C1)C(F)(F)F [Compound 124, 1-(7-(2-(3,5-bis(trifluoromethyl)phenylamino)-5-(1-(2-hydroxyethyl)-1H-pyrazol-4-yl)pyrimidin-4-ylamino)-3,4-dihydroisoquinolin-2(1H)-yl)-2,2,2-trifluoroethanone] | > 10 |
| COc1ccccc1Nc1ncc(-c2ccc(OC)c(OC)c2)c(NC2CCNCC2)n1 [Compound 68, 5-(3,4-dimethoxyphenyl)-N2-(2-methoxyphenyl)-N4-(piperidin-4-yl)pyrimidine-2,4-diamine] | > 10 |
| Clc1cc(Cl)cc(Nc2ncc(-c3ccoc3)c(NC3CCCCC3)n2)c1 [Compound 15, N4-cyclohexyl-N2-(3,5-dichlorophenyl)-5-(furan-3-yl)pyrimidine-2,4-diamine] | > 10 |
| Cc1ccc(Nc2ncc(-c3ccoc3)c(NC3CCCCC3)n2)cc1 [Compound 14, N4-cyclohexyl-5-(furan-3-yl)-N2-(p-tolyl)pyrimidine-2,4-diamine] | > 10 |
| COc1ccc(Nc2ncc(-c3cnn(C)c3)c(NC3CCN(C(=O)C(F)(F)F)CC3)n2)cc1 [Compound 44, 1-(4-(2-(4-methoxyphenylamino)-5-(1-methyl-1H-pyrazol-4-yl)pyrimidin-4-ylamino)piperidin-1-yl)-2,2,2-trifluoroethanone] | > 10 |
| COc1ccc(Nc2ncc(-c3ccc(OC)c(OC)c3)c(NC3CCN(C(=O)C(F)(F)F)CC3)n2)cc1 [Compound 64, 1-(4-(5-(3,4-dimethoxyphenyl)-2-(4-methoxyphenylamino)pyrimidin-4-ylamino)piperidin-1-yl)-2,2,2-trifluoroethanone] | > 10 |
| COc1ccc(Nc2ncc(-c3cnn(C)c3)c(NC3CCNCC3)n2)cc1 [Compound 47, N2-(4-methoxyphenyl)-5-(1-methyl-1H-pyrazol-4-yl)-N4-(piperidin-4-yl)pyrimidine-2,4-diamine] | > 10 |
| COc1ccc(-c2cnc(Nc3cccc(Cl)c3)nc2NC2CCN(C(=O)C(F)(F)F)CC2)cc1OC [Compound 69, 1-(4-(2-(3-chlorophenylamino)-5-(3,4-dimethoxyphenyl)pyrimidin-4-ylamino)piperidin-1-yl)-2,2,2-trifluoroethanone] | > 10 |
| Cc1ccc(Nc2ncc(-c3ccc(C)cc3)c(NC3CCCCC3)n2)cc1 [Compound 2, N4-cyclohexyl-N2,5-di-(p-tolyl)pyrimidine-2,4-diamine] | > 10 |
